# Structures can show the parent of a compound that is named as a salt.
# How the values were obtained:
# HCT116 [1] = details: 72 h
# Outline: (§1)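 HCT116 cells went into 1536-well plates at 250 per well. CellTiter-Glo luminescence was expressed relative to vehicle (0%) and positive control (-100%) and then pattern-corrected. Both IC50 and maximal efficacy were taken from four-parameter Hill fits.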
# HCT116 [2] = assay: efficacy (maximum % inhibition of viability vs DMSO); higher = more cytotoxic; details: 72 h
# Outline: as §1
SMILES,IC50 cell viability (HCT116 [1]; ICRF193 0 nM),IC50 cell viability (HCT116 [1]; ICRF193 200 nM),efficacy (HCT116 [2]; ICRF193 0 nM),efficacy (HCT116 [2]; ICRF193 200 nM)
O=C(Nc1ccc([N+](=O)[O-])cc1Cl)c1cc(Cl)ccc1O [Niclosamide],0.712 µM,0.712 µM,88.5%,82.8%
COC(=O)C1=C(C)NC(C)=C(C(=O)OC)C1c1ccccc1[N+](=O)[O-] [Nifedipine],23.1 µM,23.1 µM,94.7%,90.5%
COC(=O)c1ccc2c(c1)NC(=O)/C2=C(\Nc1ccc(N(C)C(=O)CN2CCN(C)CC2)cc1)c1ccccc1 [Nintedanib],> 45.8 µM,10.3 µM,,53.6%
COC(=O)C1=C(C)NC(C)=C(C(=O)OCC(C)C)C1c1ccccc1[N+](=O)[O-] (stereo not drawn) [Nisoldipine],18.3 µM,18.3 µM,55.8%,77.8%
CC(=O)Oc1ccccc1C(=O)Nc1ncc([N+](=O)[O-])s1 [Nitazoxanide],13 µM,18.3 µM,104%,122%
Cc1ccc([N+](=O)[O-])[c]2c1[O][Hg]2 [Nitromersol],3.26 µM,5.8 µM,88.9%,91.5%
O=[N+]([O-])c1ccc(Oc2ccc(N=C=S)cc2)cc1 [Nitroscanate],29.1 µM,29.1 µM,82.7%,85.5%
CC(CCc1ccccc1)NC(C)C(O)c1ccc(O)cc1 (stereo not drawn) [Nylidrin],> 45.8 µM,16.4 µM,,40.7%
Oc1cccc2cccnc12 [OXYQUINOLINE HEMISULFATE],23.1 µM,18.3 µM,86.7%,88.8%
COC(=O)C[C@](O)(CCCC(C)(C)O)C(=O)O[C@@H]1C(OC)=C[C@]23CCCN2CCc2cc4c(cc2[C@H]13)OCO4 [Omacetaxine mepesuccinate],0.0651 µM,0.0461 µM,65.6%,66.3%
O=C(N[C@H]1CCS[C@H]2CCC[C@@H](C(=O)O)N2C1=O)[C@@H](S)Cc1ccccc1 [Omapatrilat],> 45.8 µM,6.51 µM,,86.5%
C/C(=C(/OCCOc1ccc(Cl)cc1)c1ccc(Cl)cc1Cl)n1ccnc1 [Omoconazole],18.3 µM,23.1 µM,41.1%,62.4%
Cc1c(Cl)c(C)[n+]([O-])c(Cl)c1-c1noc(-c2cc(O)c(O)c([N+](=O)[O-])c2)n1 [Opicapone],> 45.8 µM,29.1 µM,,98.7%
COc1ccc2c(c1)OC(C)(C)C(c1ccccc1)C2c1ccc(OCCN2CCCC2)cc1 (stereo not drawn) [Ormeloxifene],20.6 µM,18.3 µM,91%,81.5%
C=CC(=O)Nc1cc(Nc2nccc(-c3cn(C)c4ccccc34)n2)c(OC)cc1N(C)CCN(C)C [Osimertinib mesylate],23.1 µM,16.4 µM,142%,101%
C[C@@H]1O[C@@H](O[C@H]2C[C@@H](O)[C@]3(CO)[C@H]4[C@H](O)C[C@]5(C)[C@@H](C6=CC(=O)OC6)CC[C@]5(O)[C@@H]4CC[C@]3(O)C2)[C@H](O)[C@H](O)[C@H]1O [Ouabain octahydrate],0.116 µM,0.13 µM,104%,84.4%
O=c1[nH]c2ccccc2n1CCCN1CCN(C(c2ccccc2)c2ccccc2)CC1 [Oxatomide],18.3 µM,29.1 µM,73.2%,84.5%
NC(=O)N1c2ccccc2CC(=O)c2ccccc21 [Oxcarbazepine],18.3 µM,> 45.8 µM,52.3%,
CN(C(=O)CN(CCO)CC(=O)N(C)C(C)(C)Cc1ccccc1)C(C)(C)Cc1ccccc1 [Oxethazaine],16.4 µM,13 µM,104%,97.5%

SMILES,IC50 cell viability (HCT116 [1]; ICRF193 0 nM),IC50 cell viability (HCT116 [1]; ICRF193 200 nM),efficacy (HCT116 [2]; ICRF193 0 nM),efficacy (HCT116 [2]; ICRF193 200 nM)
COC(=O)Nc1nc2cc([S+]([O-])c3ccccc3)ccc2[nH]1 (stereo not drawn) [Oxfendazole],14.6 µM,2.06 µM,44.2%,49.7%
CCCOc1ccc2[nH]c(NC(=O)OC)nc2c1 [Oxibendazole],1.3 µM,0.183 µM,43%,40.1%
Clc1ccc(CO/N=C(\Cn2ccnc2)c2ccc(Cl)cc2Cl)c(Cl)c1 [Oxiconazole nitrate],29.1 µM,20.6 µM,104%,101%
CCCCC1C(=O)N(c2ccccc2)N(c2ccc(O)cc2)C1=O (stereo not drawn) [Oxyphenbutazone],11.6 µM,9.2 µM,103%,55.1%
CCOC(=O)O[C@]1(C(=O)COC(=O)CC)CC[C@H]2[C@@H]3CCC4=CC(=O)C=C[C@]4(C)[C@H]3[C@@H](O)C[C@@]21C [PREDNICARBATE],16.4 µM,29.1 µM,108%,93.8%
NC(=O)[C@@H]1CCCN1C(=O)[C@H](Cc1c[nH]cn1)NC(=O)[C@@H]1CCC(=O)N1 [PROTIRELIN],29.1 µM,25.9 µM,69.8%,64.8%
O=C(O)c1cccc(-c2noc(-c3ccccc3F)n2)c1 [PTC-124],> 45.8 µM,10.3 µM,,46.5%
Cc1cc(/C=C/c2ccc3cc(N(C)C)ccc3[n+]2C)c(C)n1-c1ccccc1 [PYRVINIUM PAMOATE],20.6 µM,18.3 µM,111%,93.2%
CC(=O)O[C@H]1C(=O)[C@@]2(C)[C@H]([C@H](OC(=O)c3ccccc3)[C@]3(O)C[C@H](OC(=O)[C@H](O)[C@@H](NC(=O)c4ccccc4)c4ccccc4)C(C)=C1C3(C)C)[C@]1(OC(C)=O)CO[C@@H]1C[C@@H]2O [Paclitaxel],0.0058 µM,0.00461 µM,71.1%,61.8%
CC(=O)c1c(C)c2cnc(Nc3ccc(N4CCNCC4)cn3)nc2n(C2CCCC2)c1=O [Palbociclib],29.1 µM,16.4 µM,98.3%,104%
CNCCC=C1c2ccccc2CCc2ccccc21 [Pamelor],> 45.8 µM,29.1 µM,,51.6%
CCOC(=O)Cn1cccc1-c1nc(-c2ccc(OC)cc2)c(-c2ccc(OC)cc2)s1 [Pamicogrel],5.8 µM,5.17 µM,89.1%,86.7%
Cc1[nH]c2ccccc2c1CCNCc1ccc(/C=C/C(=O)NO)cc1 [Panobinostat],0.0651 µM,0.058 µM,95.6%,94.8%
COc1ccc(Cc2nccc3cc(OC)c(OC)cc23)cc1OC [Papaverine hydrochloride],> 45.8 µM,3.66 µM,,41.6%
C=C1C(=O)O[C@H]2[C@H]1CC/C(C)=C/CC[C@@]1(C)O[C@@H]21 [Parthenolide],6.51 µM,8.2 µM,93.1%,95.3%
Cc1ccc(Nc2nccc(N(C)c3ccc4c(C)n(C)nc4c3)n2)cc1S(N)(=O)=O [Pazopanib],18.3 µM,> 45.8 µM,56.3%,
CC(C)(C)NC[C@H](O)COc1ccccc1C1CCCC1 [Penbutolol sulfate],> 45.8 µM,20.6 µM,,50%
N=C(N)c1ccc(OCCCCCOc2ccc(C(=N)N)cc2)cc1 [Pentamidine isethionate],> 45.8 µM,18.3 µM,,60.4%
CN1CCN(CCCN2c3ccccc3Sc3ccccc32)CC1 [Perazine],31.6 µM,35.5 µM,86.5%,95.2%

SMILES,IC50 cell viability (HCT116 [1]; ICRF193 0 nM),IC50 cell viability (HCT116 [1]; ICRF193 200 nM),efficacy (HCT116 [2]; ICRF193 0 nM),efficacy (HCT116 [2]; ICRF193 200 nM)
C1CCC(C(CC2CCCCN2)C2CCCCC2)CC1 (stereo not drawn) [Perhexiline],18.3 µM,18.3 µM,90.2%,100%
OCCN1CCN(CCCN2c3ccccc3Sc3ccc(Cl)cc32)CC1 [Perphenazine],23.1 µM,23.1 µM,108%,115%
CC(=O)[O][Hg][c]1ccccc1 [Phenylmercuric acetate],4.61 µM,5.17 µM,106%,97.9%
CC(C)COc1ccc(CNC(=O)N(Cc2ccc(F)cc2)C2CCN(C)CC2)cc1 [Pimavanserin],18.3 µM,18.3 µM,96.9%,97.4%
CC[C@@H]1/C=C(\C)C[C@H](C)C[C@H](OC)[C@H]2O[C@@](O)(C(=O)C(=O)N3CCCC[C@H]3C(=O)O[C@H](/C(C)=C/[C@@H]3CC[C@H](Cl)[C@H](OC)C3)[C@H](C)[C@@H](O)CC1=O)[C@H](C)C[C@@H]2OC [Pimecrolimus],14.6 µM,18.3 µM,62.4%,63.4%
O=c1[nH]c2ccccc2n1C1CCN(CCCC(c2ccc(F)cc2)c2ccc(F)cc2)CC1 [Pimozide],18.3 µM,20.6 µM,102%,109%
CC(=O)c1ccc2c(c1)N(CCCN1CCC(CCO)CC1)c1ccccc1S2 [Piperacetazine],> 45.8 µM,20.6 µM,,48.7%
COc1cccc2c1C(=O)c1c(O)c3c(c(O)c1C2=O)C[C@@](O)(C(=O)CO)C[C@@H]3O[C@H]1C[C@H](N)[C@H](O[C@@H]2CCCCO2)[C@H](C)O1 [Pirarubicin],5.17 µM,6.51 µM,127%,104%
Cc1cc(CC(C)CC(C)(C)C)n(O)c(=O)c1 (stereo not drawn) [Piroctone Olamine],18.3 µM,29.1 µM,81%,87.4%
O=C(O)C[C@H](O)C[C@H](O)/C=C/c1c(C2CC2)nc2ccccc2c1-c1ccc(F)cc1 [Pitavastatin Calcium],7.3 µM,3.66 µM,100%,110%
NCCNc1ccc(NCCN)c2c1C(=O)c1ccncc1C2=O [Pixantronemaleate],29.1 µM,13 µM,83.2%,82.2%
CO[C@H](C(=O)[C@@H](O)[C@@H](C)O)[C@@H]1Cc2cc3cc(O[C@H]4C[C@@H](O[C@@H]5C[C@@H](O)[C@H](O)[C@@H](C)O5)[C@H](O)[C@@H](C)O4)c(C)c(O)c3c(O)c2C(=O)[C@H]1O[C@H]1C[C@@H](O[C@@H]2C[C@@H](O)[C@@H](O[C@@H]3C[C@](C)(O)[C@H](O)[C@@H](C)O3)[C@@H](C)O2)[C@H](O)[C@@H](C)O1 [Plicamycin],0.0651 µM,0.058 µM,82.3%,83.7%
C#CCC(Cc1cnc2nc(N)nc(N)c2n1)c1ccc(C(=O)N[C@@H](CCC(=O)O)C(=O)O)cc1 (stereo partly drawn) [Pralatrexate],0.0082 µM,0.00651 µM,84.8%,85.6%
COc1cc2nc(N3CCN(C(=O)c4ccco4)CC3)nc(N)c2cc1OC [Prazosin],> 45.8 µM,7.99 µM,,42.5%
CC(C)(C)CC(=O)OCC(=O)[C@@]1(O)CC[C@H]2[C@@H]3CCC4=CC(=O)C=C[C@]4(C)[C@H]3[C@@H](O)C[C@@]21C [Prednisolone tebutate],> 45.8 µM,29.1 µM,,41.9%
COc1cc(NC(C)CCCN)c2ncccc2c1 (stereo not drawn) [Primaquine diphosphate],5.8 µM,> 45.8 µM,87.5%,
CN1CCN(CCCN2c3ccccc3Sc3ccc(Cl)cc32)CC1 [Prochlorperazine dimaleate],25.9 µM,20.6 µM,89.6%,81.1%
Nc1ccc2cc3ccc(N)cc3nc2c1 [Proflavin hemisulfate],20.6 µM,29.1 µM,95.1%,93.6%
CC(=O)[C@H]1CC[C@H]2[C@@H]3CCC4=CC(=O)CC[C@]4(C)[C@H]3CC[C@]12C [Progesterone],29.1 µM,18.3 µM,43.3%,51.2%

# Source: the supplement of paper PMC12137928
